How the values were obtained:
[1] = test system: NIS promoter; experiment: NIS promoter activity by F-luc2 bioluminescence (BLI) in dual-reporter cells; format: cell-based, human; details: 8505C-PNIS-PCMV cells
Description: A pNIS-FL2-TurboFP635-pCMV-Rluc recombinant vector expressing reporter genes driven by dual promoters was constructed by Cosmo Genetech, Ltd. (Republic of Korea) using a pNIS-FL2-TurboFP635 vector and a pcDNA3.1/Hygro(+) vector. Specifically, in order to screen a substance that increases the activity of NIS promoter, Firefly-luciferase2(F-luc2) and TurboFP635 were included downstream (clockwise) of the NIS promoter. In order count cells, CMV promoter and Renilla-luciferase (R-luc) were included upstream (counterclockwise) of the NIS promoter. The pNIS-FL2-TurboFP635 vector was provided from Dr. Abhijit De (ACTREC, India), and the pcDNA3.1/Hygro(+) vector was purchased from invitrogen (USA).
The 8505C cell line was transfected with the pNIS-FL2-TurboFP635-pCMV-Rluc recombinant vector using the Fu-GENE HD solution according to the protocols of the manufacturer (Promega). The ratio of the recombinant vector to the Fu-GENE HD solution was 1:4, and the transfected cells were selected using 600 μg/ml of geneticin (AG Scientific). The selected cell line that stably expresses the dual-reporter gene system is referred to herein as ‘8505C-PNIS-PCMV’ cell line.
To examine transcriptional regulation of the NIS (sodium iodide symporter) promoter, the 8505C-PNIS-PCMV cells were treated with a tyrosine kinase inhibitor (hereinafter referred to as TKI) library for 24 hours. Next, D-luciferin (150 μg/ml) was added to the cells, and the activity of NIS promoter was measured by IVIS Lumina III (Perkin-Elmer, Wellesley, Mass., USA). To normalize the NIS promoter activity to cell number, 10 μg/ml of h-coelenterazine was added to the cells, and the activity of R-luc was measured. The activity of F-luc2 was divided by the R-luc activity. The TKI library used in the experiment was obtained from the Korea Chemical Bank (www.chembank.org) in the Korea Research Institute of Chemical Technology (Republic of Korea). Among the TKI candidates, TKI-0266 was selected, purchased from Chemdiv (USA), dissolved in DMSO, and then stored at −80° C.

[2] = test system: 8505C cells; experiment: In vitro 125I uptake assay; format: cell-based, human; details: anaplastic thyroid cancer cells, 24 hours treatment
Protocol: 8505C cells (1.25×10^5) were seeded and incubated in a 24-well plate for 24 hours, and then treated with TKI-0266 and further incubated for 24 hours. Thereafter, the medium was removed, and the cells were washed with bHBSS (Hank's balanced salt solution containing 0.5% BSA). The cells were incubated with 500 μl of bHBSS, 3.7 kBq carrier-free ^125I (Perkin-Elmer), and 10 μmol/L sodium iodide (specific activity of 740 MBq/mmol) at 37° C. for 30 minutes. Thereafter, the cells were washed twice with cold bHBSS and lysed by adding 500 μL of 2% SDS solution thereto. Radioactivity was measured using a Cobra II gamma-counter (Canberra Packard, Canada). The ^125I uptake values were normalized by comparing the amount of total protein determined by BCA protein assay kit.

[3] = test system: 8505C cells; experiment: 131I clonogenic assay; format: cell-based, human
Protocol: 8505C cells (4×10^5) cells were seeded in a six-well plate, and then treated with TKI-0266 and incubated for 24 hours. Next, the medium was removed, and the cells were washed twice with bHBSS, and then incubated in the presence or absence of 50 μCi/ml ^131I (KIRAMS, Korea) containing 30 μM NaI for 7 hours at 37° C. After incubation, the cells were washed twice with bHBSS, re-seeded in a new six-well plate at a density of 1,000 cells/well, and then incubated for 7 days to induce colony formation. On day 7, the medium was removed and the cells were washed twice with PBS. A fixation buffer containing acetic acid:methanol at a ratio of 1:7 was added to the cells and the plate was left to stand at room temperature for 5 minutes to fix colonies. The fixed colonies were stained with 0.05% crystal violet for 1 hour and immersed in tap water to remove crystal violet. The colonies containing 50 or more cells were counted. Percentage inhibition was calculated as the number of colonies formed in the TKI-0266-treated group relative to the vehicle control.

[4] = test system: NIS; experiment: Immunofluorescence microscopy of NIS; format: cell-based, human; details: anaplastic thyroid cancer cells, 24 hours
Protocol: 8505C cells were seeded in a plate at a density of 2×10^5 cells and treated with the TKI inhibitor TKI-0266. After 24 hours, the cells were fixed with 4% paraformaldehyde for 30 minutes at room temperature and washed three times with PBS for 10 minutes each wash. Next, the cells were treated with PBS containing 0.7% Triton for 10 minutes at room temperature and quenched with PBS containing 50 mM NH4Cl for 10 minutes at room temperature. The cells were washed three times with PBS for 5 minutes each wash, and then blocked with 5% BSA-containing PBS and incubated with anti-NIS primary antibody (diluted at 1:50; Abcam, UK) overnight at 4° C. The next day, the cells were washed three times with PBS for 10 minutes each wash and incubated with Alexa-Fluor 488-conjugated secondary antibody (diluted at 1:300; Thermo Fisher Scientific) 1 hour. After 1 hour, the cells were washed three times with PBS for 10 minutes for each wash, and mounted on a coverslip using a Vecta mounting medium (Vector Laboratories, USA) containing 4′,6-diamidino-2-phenylindole (DAPI). NIS staining was observed by confocal laser microscopy (Zeiss, LSM 5 exciter, Germany).

[5] = test system: anaplastic thyroid cancer xenograft (8505C-PNIS-PCMV); experiment: In vivo bioluminescence imaging of F-luc2 (NIS expression); design: species or system Balb/c nude mice; details: 50 mg/kg every day for 5 days, D-luciferin
Protocol: Female Balb/c nude mice, 5.5-week old with an average weight of 18.9±0.37 g (mean±standard deviation [SD]), were purchased (Hamamatsu, Shizuoka, Japan). The mice were acclimated under specific pathogen-free conditions for one week before starting the experiment, and were maintained at a temperature of 20 to 25° C. and a relative humidity of 40 to 70%. To establish anaplastic thyroid cancer xenograft mouse models, 8505C-PNIS-PCMV s (5×10^6) were mixed with Matrigel (Corning) at a ratio of 1:1 and injected subcutaneously into the right flank region of each mouse.
In order to examine whether the expression of NIS would be increased by TKI-0266, mice for use in the experiment were divided into two groups (n=5): the vehicle group; and the TKI-0266-administered group (50 mg/kg). 50 mg/kg of TKI-0266 was administered intravenously to the established anaplastic thyroid cancer xenograft mice every day for 5 days. On day 0 (before administration of TKI-0266) and day 6 after the start of administration of TKI-0266, to measure the R-luc signal with IVIS Lumina III, h-coelenterazine (15 μg/ml) was administered to the mice by intravenous injection. Next, D-luciferin (150 μg/ml) was administered intraperitoneally to the mice, and the bioluminescence image (hereinafter referred to as BLI) was acquired.

## Cc1cc2c(N(C)C3CCCCC3)ncnc2s1 [TKI-0266]
[1]
  concentration showing the highest F-luc2 activity: 12.5 µM
[1]; 24 hours, screening
  BLI signal activity of F-luc2 (NIS promoter activity), increase: 3.19 fold
[1]; FIG. 7A
  BLI signal of F-luc2 as treatment concentration increased: increased
[1]; FIG. 8
  activity of NIS promoter (normalized by cell viability) as treatment concentration increased: increased
[2]
  iodine uptake compared to vehicle group: significantly increased
[3]; TKI-0266 alone
  colony-forming ability compared to vehicle group: decreased
[3]; co-treated with 131I and TKI-0266
  colony-forming ability compared to vehicle, 131I-treated and TKI-0266-treated groups: significantly decreased
[4]
  expression of endogenous NIS (immunofluorescence): robust
[5]
  activity of F-luc2 in vivo (NIS expression): significantly increased

Reference: US12011447B2, “Pharmaceutical composition for treating thyroid cancer comprising tyrosine kinase activity inhibitor as active ingredient” (Kyungpook National University Industry-Academic Cooperation …, priority 2017, dated 2024)
